# According to patent publication US7479493B2, “Substituted benzyl amine compounds” (Janssen Pharmaceutica N.V., priority 2006, dated 2009):
# pKi: −log10 of the molar value.
# What was measured:
# [1] = biological target: T1, human SERT (Homo sapiens, UniProt P31645); assay: Human SERT (3H-citalopram binding, HEK293 membranes); settings: HEK293 membranes expressing the human SERT, rt 1 h
# T1 construct: expressed in transfected cells; host or cells: HEK293 membranes
# Experimental: Homogenized HEK293 (Human Embryonic Kidney) membranes expressing the human SERT were incubated with ^3H-citalopram (SERT) at rt for 1 h in 50 mM Tris, 120 mM NaCl, 5 mM KCl (pH 7.4). Nonspecific binding was determined in the presence of 10 μM fluoxetine for the SERT. The membranes were washed and the radioactivity was counted as above.
# [2] = biological target: Rat SERT (Rattus norvegicus, UniProt P31652); assay: biochemical
# Experimental: The supernatant was removed and re-centrifuged at 15,000 rpm for 30 min. […] Membranes were incubated with 0.6 nM [^3H]-Citalopram plus/minus test compounds for 60 min at 25° C. and harvested by rapid filtration over GF/C glass fiber filters (pretreated with 0.3% polyethylenimine) followed by four washes with ice-cold buffer. Nonspecific binding was defined in the presence of 100 μM fluoxetine.
# [3] = biological target: cloned human H3 receptor (Homo sapiens, UniProt Q9Y5N1); assay: H3 Receptor Binding; settings: cloned human H3 receptor stably expressed in SK-N-MC cells
# [4] = biological target: human H3 receptor (Homo sapiens, UniProt Q9Y5N1); assay: Cyclic AMP Accumulation (reporter gene, SK-N-MC cells)
# Chain of human H3 receptor (Q9Y5N1 whole entry): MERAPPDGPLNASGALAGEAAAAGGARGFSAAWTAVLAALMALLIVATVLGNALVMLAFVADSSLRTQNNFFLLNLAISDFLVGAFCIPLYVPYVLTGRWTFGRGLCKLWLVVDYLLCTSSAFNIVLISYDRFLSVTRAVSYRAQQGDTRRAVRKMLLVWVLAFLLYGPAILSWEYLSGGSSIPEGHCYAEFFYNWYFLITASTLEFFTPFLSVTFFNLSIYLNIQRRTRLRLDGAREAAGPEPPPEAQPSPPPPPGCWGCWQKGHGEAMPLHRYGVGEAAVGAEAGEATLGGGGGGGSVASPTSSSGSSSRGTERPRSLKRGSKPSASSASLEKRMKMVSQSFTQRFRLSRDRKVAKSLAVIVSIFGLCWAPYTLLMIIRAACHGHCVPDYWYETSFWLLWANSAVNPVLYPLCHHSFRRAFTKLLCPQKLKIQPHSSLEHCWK
# Experimental: Sublines of SK-N-MC cells were created that expressed a reporter construct and the human H3 receptor. The reporter gene (β-galactosidase) is under the control of multiple cyclic AMP responsive elements. In 96-well plates, histamine was added directly to the cell media followed 5 min later by an addition of forskolin (5 μM final concentration). When appropriate, antagonists were added 10 min prior to agonist addition. After a 6-h incubation at 37° C., the media was aspirated and the cells washed with 200 μL of phosphate-buffered saline followed by a second aspiration. […] Color was developed using 25 μL of 1 mg/mL substrate solution (chlorophenolred β-D galactopyranoside; Roche Molecular Biochemicals, Indianapolis, Ind.).
# Chain of cloned human H3 receptor (Q9Y5N1 whole entry): as above
# Chain of Rat SERT (P31652 whole entry): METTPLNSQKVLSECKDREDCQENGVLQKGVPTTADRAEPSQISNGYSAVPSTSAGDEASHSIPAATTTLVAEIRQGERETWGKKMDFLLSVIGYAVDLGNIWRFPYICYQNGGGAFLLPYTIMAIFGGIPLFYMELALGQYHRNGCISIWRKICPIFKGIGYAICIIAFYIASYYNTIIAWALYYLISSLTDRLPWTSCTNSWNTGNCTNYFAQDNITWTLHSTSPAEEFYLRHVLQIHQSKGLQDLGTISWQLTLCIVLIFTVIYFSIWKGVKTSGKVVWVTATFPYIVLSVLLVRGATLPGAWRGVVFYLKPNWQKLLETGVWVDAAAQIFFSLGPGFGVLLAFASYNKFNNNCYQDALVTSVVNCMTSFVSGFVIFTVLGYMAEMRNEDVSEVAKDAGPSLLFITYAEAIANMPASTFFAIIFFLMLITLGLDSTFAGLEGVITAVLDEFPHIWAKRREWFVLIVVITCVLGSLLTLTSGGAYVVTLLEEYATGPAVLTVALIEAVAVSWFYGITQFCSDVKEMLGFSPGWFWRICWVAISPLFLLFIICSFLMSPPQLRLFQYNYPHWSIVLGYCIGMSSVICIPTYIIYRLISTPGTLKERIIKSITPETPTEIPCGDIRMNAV
# T1 sequence (P31645 whole entry): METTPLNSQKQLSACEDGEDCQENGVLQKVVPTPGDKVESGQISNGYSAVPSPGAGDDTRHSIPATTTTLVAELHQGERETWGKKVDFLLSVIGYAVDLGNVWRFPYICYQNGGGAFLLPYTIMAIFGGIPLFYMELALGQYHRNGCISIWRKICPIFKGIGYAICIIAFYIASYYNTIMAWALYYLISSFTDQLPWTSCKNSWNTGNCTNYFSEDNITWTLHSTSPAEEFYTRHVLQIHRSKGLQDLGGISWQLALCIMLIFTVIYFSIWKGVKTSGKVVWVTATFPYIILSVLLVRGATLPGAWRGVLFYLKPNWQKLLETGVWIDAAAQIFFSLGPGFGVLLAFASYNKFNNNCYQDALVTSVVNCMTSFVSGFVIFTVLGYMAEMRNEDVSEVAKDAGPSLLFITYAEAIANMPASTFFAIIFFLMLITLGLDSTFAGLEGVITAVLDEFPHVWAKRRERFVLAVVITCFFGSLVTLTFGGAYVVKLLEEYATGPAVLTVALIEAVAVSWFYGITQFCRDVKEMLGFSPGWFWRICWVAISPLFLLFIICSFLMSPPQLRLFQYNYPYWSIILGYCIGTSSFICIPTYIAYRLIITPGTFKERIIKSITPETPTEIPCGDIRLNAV
pKi [2],pKi [3],SMILES,pKi [1],Kb [4] [nM]
6.80,9.00,"CNCc1cc(C(=O)N2CCN(C(C)C)CC2)ccc1Oc1cccnc1 [Example 9, (4-Isopropyl-piperazin-1-yl)-[3-methylaminomethyl-4-(pyridin-3-yloxy)-phenyl]-methanone]",6.38,–
8.00,7.57,"CNCc1cc(N2CCCN(C(C)C)CC2)ccc1Oc1ccc(Cl)c(Cl)c1 [Example 55, [2-(3,4-Dichloro-phenoxy)-5-(4-isopropyl-[1,4]diazepan-1-yl)-benzyl]-methyl-amine]",–,–
7.80,7.60,"CNCc1cc(N2CCCN(C3CC3)CC2)ccc1Oc1ccc(Cl)c(Cl)c1 [Example 56, [5-(4-Cyclopropyl-[1,4]diazepan-1-yl)-2-(3,4-dichloro-phenoxy)-benzyl]-methyl-amine]",–,–
8.40,7.43,"CNCc1cc(N2CCN(C3CC3)CCC2=O)ccc1Oc1ccc(SC)cc1 [Example 57, 1-Cyclopropyl-4-[3-methylaminomethyl-4-(4-methylsulfanyl-phenoxy)-phenyl]-[1,4]diazepan-5-one]",–,–
8.22,6.52,"CNCc1cc(N2CC[C@H](N(C)C)C2)ccc1Oc1ccc(SC)cc1 [Example 58, (S)-Dimethyl-{1-[3-methylaminomethyl-4-(4-methylsulfanyl-phenoxy)-phenyl]-pyrrolidin-3-yl}-amine]",–,–
8.40,7.15,"CNCc1cc(C(=O)N2CCN(C3CC3)CC2)ccc1OCc1ccc(Cl)c(Cl)c1 [Example 59, (4-Cyclopropyl-piperazin-1-yl)-[4-(3,4-dichloro-benzyloxy)-3-methylaminomethyl-phenyl]-methanone]",–,–
8.52,8.70,"CSc1ccc(Oc2ccc(CN3CCN(C(C)C)CC3)cc2CNC2CC2)cc1 [Example 60, Cyclopropyl-[5-(4-isopropyl-piperazin-1-ylmethyl)-2-(4-methylsulfanyl-phenoxy)-benzyl]-amine]",–,–
9.10,8.70,"CNCc1cc(CN2CCN(C(C)C)CC2)ccc1Oc1ccc(SC)cc1 [Example 61, [5-(4-Isopropyl-piperazin-1-ylmethyl)-2-(4-methylsulfanyl-phenoxy)-benzyl]-methyl-amine]",–,–
9.00,7.68,"CSc1ccc(Oc2ccc(CN3CCN(C(C)C)CC3)cc2CN(C)C)cc1 [Example 62, [5-(4-Isopropyl-piperazin-1-ylmethyl)-2-(4-methylsulfanyl-phenoxy)-benzyl]-dimethyl-amine]",–,–
8.22,9.05,"CCNCc1cc(CN2CCN(C(C)C)CC2)ccc1Oc1ccc(SC)cc1 [Example 63, Ethyl-[5-(4-isopropyl-piperazin-1-ylmethyl)-2-(4-methylsulfanyl-phenoxy)-benzyl]-amine]",–,–
8.15,9.30,"CSc1ccc(Oc2ccc(CN3CCN(C(C)C)CC3)cc2CNC(C)C)cc1 [Example 64, Isopropyl-[5-(4-isopropyl-piperazin-1-ylmethyl)-2-(4-methylsulfanyl-phenoxy)-benzyl]-amine]",–,–
7.74,8.40,"CSc1ccc(Oc2ccc(CN3CCN(C(C)C)CC3)cc2CN)cc1 [Example 65, 5-(4-Isopropyl-piperazin-1-ylmethyl)-2-(4-methylsulfanyl-phenoxy)-benzylamine]",–,–
8.22,5.60,"CNCc1cc(CN2CCN(C(C)C)C(=O)C2)ccc1Oc1ccc(Cl)c(Cl)c1 [Example 66, 4-[4-(3,4-Dichloro-phenoxy)-3-methylaminomethyl-benzyl]-1-isopropyl-piperazin-2-one]",–,–
8.40,8.22,"CNCc1cc(CN2CCN(C(C)C)CC2=O)ccc1Oc1ccc(Cl)c(Cl)c1 [Example 67, 1-[4-(3,4-Dichloro-phenoxy)-3-methylaminomethyl-benzyl]-4-isopropyl-piperazin-2-one]",–,–
8.40,6.96,"CNCc1cc(CN2CCN(C(C)C)CCC2=O)ccc1Oc1ccc(Cl)c(Cl)c1 [Example 69, 4-[4-(3,4-Dichloro-phenoxy)-3-methylaminomethyl-benzyl]-1-isopropyl-[1,4]diazepan-5-one]",–,–
8.30,7.72,"CNCc1cc(CN2CCN(C3CCC3)CCC2=O)ccc1Oc1ccc(Cl)c(Cl)c1 [Example 70, 1-Cyclobutyl-4-[4-(3,4-dichloro-phenoxy)-3-methylaminomethyl-benzyl]-[1,4]diazepan-5-one]",–,–
8.70,8.22,"CNCc1cc(C(=O)NCCN2CCCC2)ccc1Oc1cccc(Cl)c1 [Example 71, 4-(3-Chloro-phenoxy)-3-methylaminomethyl-N-(2-pyrrolidin-1-yl-ethyl)-benzamide]",–,–
7.19,8.40,"CNCc1cc(C(=O)N2CCN(C3CCC3)CC2)ccc1Oc1cccc(Cl)c1 [Example 72, [4-(3-Chloro-phenoxy)-3-methylaminomethyl-phenyl]-(4-cyclobutyl-piperazin-1-yl)-methanone]",–,–
6.30,6.85,"Cc1ccc(Oc2cc(C(=O)N3CCN(C4CC4)CC3)ccc2CN(C)C)c(C)n1 [Example 80, (4-Cyclopropyl-piperazin-1-yl)-[4-dimethylaminomethyl-3-(2,6-dimethyl-pyridin-3-yloxy)-phenyl]-methanone]",–,–
5.10,7.17,"CN(C)Cc1ccc(C(=O)N2CCN(C3CC3)CC2)cc1OCc1ccccc1 [Example 81, (3-Benzyloxy-4-dimethylaminomethyl-phenyl)-(4-cyclopropyl-piperazin-1-yl)-methanone]",–,–

SMILES,pKi [2],pKi [3],pKi [1],Kb [4] [nM]
"CC(C)N1CCN(C(=O)c2ccc(CNC3CC3)c(Oc3cccnc3)c2)CC1 [Example 30, [4-Cyclopropylaminomethyl-3-(pyridin-3-yloxy)-phenyl]-(4-isopropyl-piperazin-1-yl)-methanone]",5.40,8.52,–,0.794
"O=C(c1ccc(CNC2CC2)c(Oc2cccnc2)c1)N1CCN(C2CC2)CC1 [Example 31, [4-Cyclopropylaminomethyl-3-(pyridin-3-yloxy)-phenyl]-(4-cyclopropyl-piperazin-1-yl)-methanone]",6.00,8.00,–,1.58
"CC(C)N1CCN(C(=O)c2ccc(CN3CCCCC3)c(Oc3cccnc3)c2)CC1 [Example 33, (4-Isopropyl-piperazin-1-yl)-[4-piperidin-1-ylmethyl-3-(pyridin-3-yloxy)-phenyl]-methanone]",–,8.70,–,0.316
"O=C(c1ccc(CN2CCCCC2)c(Oc2cccnc2)c1)N1CCN(C2CC2)CC1 [Example 34, (4-Cyclopropyl-piperazin-1-yl)-[4-piperidin-1-ylmethyl-3-(pyridin-3-yloxy)-phenyl]-methanone]",–,8.52,–,1.26
"CN(C)C1CCN(C(=O)c2ccc(CN3CCCCC3)c(Oc3cccnc3)c2)C1 (centres unmarked) [Example 35, (3-Dimethylamino-pyrrolidin-1-yl)-[4-piperidin-1-ylmethyl-3-(pyridin-3-yloxy)-phenyl]-methanone]",–,8.15,–,2.51
"CNCc1ccc(C(=O)N2CCN(C(C)C)CC2)cc1Oc1ccc(Cl)cc1 [Example 36, [3-(4-Chloro-phenoxy)-4-methylaminomethyl-phenyl]-(4-isopropyl-piperazin-1-yl)-methanone]",7.55,8.40,–,6.31
"CNCc1cc(N2CCN(C(C)C)CCC2=O)ccc1Oc1ccc(SC)cc1 [Example 54, 1-Isopropyl-4-[3-methylaminomethyl-4-(4-methylsulfanyl-phenoxy)-phenyl]-[1,4]diazepan-5-one]",9.30,8.52,–,2
"CNCc1cc(CN2CCC(=O)N(C(C)C)CC2)ccc1Oc1ccc(Cl)c(Cl)c1 [Example 68, 1-[4-(3,4-Dichloro-phenoxy)-3-methylaminomethyl-benzyl]-4-isopropyl-[1,4]diazepan-5-one]",8.15,5.20,–,–
"CNCc1cc(N2CCN(C(C)C)CCC2=O)ccc1Oc1ccc(Cl)c(Cl)c1 [Example 73, 4-[4-(3,4-Dichloro-phenoxy)-3-methylaminomethyl-phenyl]-1-isopropyl-[1,4]diazepan-5-one]",7.92,8.11,7.80,4.47
